Activity calls are given as the source filed them.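 Rule for the calls: active = compounds giving half or more protection of infected cells from virus-caused growth loss, again on retest; inactive = the rest.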
Tested on: CEM cells HIV-1 protection, formazan growth assay
Experiment: NCI AIDS Antiviral Assay
Details: for IC50: measured here: growth of uninfected CEM cells
Procedure, shortened: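 Soluble formazan readout of cell growth; CEM cells ± HIV-1; 5 drug concs. ≥50% protection → retest; ≥50% again = moderately active; reproducible 100% = confirmed active.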

SMILES | EC50 [µM] | IC50 [µM] | outcome
O=C(C1CC2CCN1CC2)N1CCN(C(=O)C2CC3CCN2CC3)CC1 (centres undefined) | > 200 | > 200 | 
CCN1C(=O)C(C)S/C1=N\NC(=O)CSc1nc2ccccc2c(=O)n1CC (centres undefined) | > 200 | 145 | 
CCOC(=O)N/N=C(\CC)NO | > 200 | > 200 | 
CCOC(=O)c1c2cccccc-2nc1Nc1ccccc1N1C=CC(C)C(C(=O)OC)=C1C(=O)OC (centres undefined) | > 200 | 129 | 
Nc1ncnc2c1ncn2C1CCC(=O)C1 (centres undefined) | > 1150 | 174 | 
O=c1[nH]c(=O)n([C@H]2CCCO2)cc1F | > 631 | 102 | 
O=C(CNC(=O)c1cnc2ccccc2n1)NCCCNC(=O)CNC(=O)c1cnc2ccccc2n1 | > 100 | > 100 | 
Cn1c(=O)c2ccccc2[n+]2c(-c3cccc([N+](=O)[O-])c3)csc12 | > 200 | 148 | 
CC1=CC(S)NC(=S)N1 (centres undefined) | > 200 | > 200 | 
COC(=O)C1=C(C(=O)OC)SC(=C(Br)C(=C2SC(C(=O)OC)=C(C(=O)OC)S2)C(=C2SC(C(=O)OC)=C(C(=O)OC)S2)C(Br)=C2SC(C(=O)OC)=C(C(=O)OC)S2)S1 | > 2.51 | > 2.51 | 
N#Cc1ccccc1-c1nc2c3c(c(N)ccc3n1)C(=O)c1ccccc1-2 | > 200 | 40.7 | 
O=C(CP(=O)(O)O)c1cccs1 | > 1200 | > 1200 | 
COc1c(C)c(C/C=C(\C)CC/C=C(\C)CC/C=C(\C)CCC=C(C)C)c(OC)c2ccccc12 | > 200 | 107 | 
CC1CCCCC12C(C#N)(C#N)C2(C#N)C#N (centres undefined) | > 20 | 9.55 | 
CCOC(=O)Cc1csc2[n+]1C(=O)/C(=C/c1ccc(OC)c(OC)c1)S2 | > 200 | 20 | 
Cc1nnc(N=Nc2c(O)[nH]c3c(Cl)cc(Cl)cc23)n1N | > 16.6 | > 16.6 | 
O=C1N[Se](=O)c2ccccc21 (centres undefined) | 2.69 | 22.9 | 
O=Nc1c[nH]c(=O)[nH]c1=O | > 200 | > 200 | 
O=C(c1cccs1)N(C(=S)N1CCN(c2ccccc2)CC1)C1CCCCC1 | > 12.6 | > 12.6 | 
O=c1c2ccccc2[nH]c2c(Cl)cc(Cl)c(N3CCCCC3)c12 | > 200 | 12.9 | 
Cc1cccc(NC(=S)Nc2cccc(C)n2)n1 | > 200 | > 200 | 

SMILES | EC50 [µM] | IC50 [µM] | outcome
NC(C(F)(F)F)(C(F)(F)F)P(=O)(c1ccccc1)c1ccccc1 | > 200 | > 200 | 
CC12Nc3c(Cl)cc(Cl)cc3N1C(=O)c1ccccc12 (centres undefined) | > 200 | 87.1 | 
CC1OC(=O)C(C(C)C)NC(=O)C(C(C)C)OC(=O)C(C(C)C)NC(=O)C(C)OC(=O)C(C(C)C)NC(=O)C(C(C)C)OC(=O)C(C(C)C)NC(=O)C(C)OC(=O)C(C(C)C)NC(=O)C(C(C)C)OC(=O)C(C(C)C)NC1=O (centres undefined) | > 0.02 | 0.00102 | 
N#C/C(N)=C(\C#N)N=CN | > 200 | > 200 | 
Cc1cn(C2CC(O)C(CNC(=O)NO)O2)c(=O)[nH]c1=O (centres undefined) | > 200 | > 200 | 
O=C(NCc1cc(CNC(=O)c2cccc(O)c2O)cc(CNC(=O)c2cccc(O)c2O)c1)c1cccc(O)c1O | > 200 | 1.95 | 
NC(=Nc1ccc(S(=O)(=O)Nc2cnc3ccccc3n2)cc1)/N=C(/N)Nc1ccc(Br)cc1 | > 87.1 | > 87.1 | 
Cc1cc2[nH]c3c(C#N)c4c(c(=O)n3c2cc1C)CCCC4 | > 200 | > 200 | 
Cc1[nH]c(=O)n2c(C)nnc2c1C(=O)O |  |  | inactive
C/C(=C\c1ccc([N+](=O)[O-])cc1)C(=O)O | > 174 | > 174 | 
CC1OC(Oc2ccc3c(=O)c(-c4ccc(O)cc4)coc3c2)C(O)C(O)C1O (centres undefined) | > 200 | 93.3 | 
N/C(=N/N=C/c1cccnc1)NO |  |  | inactive
NC(CSS(=O)(=O)O)=NCCc1c[nH]c(=S)[nH]1 | > 200 | 34.7 | 
O=C1NC(=O)C(=Nc2cccc3c(=O)[nH][nH]c(=O)c23)C(c2nc3ccccc3s2)C1=O (centres undefined) |  |  | inactive
Oc1cc(Cl)cc2cc(Cl)cnc12 |  |  | inactive
CCOC(=O)c1nc2cc(C(F)(F)F)ccc2nc1Nc1ccc(F)cc1 | > 200 | 12.3 | 
Cc1ccc(N=Nc2c(S(=O)(=O)O)cc3cc(NC(=O)Nc4ccc5c(O)c(N=Nc6ccc7cc(S(=O)(=O)O)ccc7c6)c(S(=O)(=O)O)cc5c4)ccc3c2O)cc1 |  |  | active
CSC(SC)=C1Sc2cccc(Cl)c2S1 | > 9.33 | > 9.33 | 
CC(C)(C)c1cc(C=C(C#N)C#N)cc(C(C)(C)C)c1O | > 20 | 0.372 | 
O=c1c(O)c(O)c(=O)c(=O)c1=O |  |  | inactive
Cc1nc(C2CCC3C4CCC5=CC(=O)CCC5(C)C4CCC23C)co1 (centres undefined) |  |  | inactive

SMILES | EC50 [µM] | IC50 [µM] | outcome
Cc1cc(NC(=O)C(=O)Cc2cnc3ccccc3n2)c(S(=O)(=O)O)cc1Cl | > 589 | > 589 | 
Cc1nc2c(sc3nc4c(cc32)CCC4)c(=O)o1 | > 100 | 53.7 | 
Cc1c2[nH]c(c1CCC(=O)O)/C=c1\[n-]/c(c(C)c1CCC(=O)O)=C\c1[n-]c(c(C)c1C(C)O)/C=c1\[nH]/c(c(C)c1C(C)O)=C\2.[Cl][Pt+2][Cl] (centres undefined) | > 20.9 | 14.5 | 
C=C(C)CCC1CCCCC(CN(C)C)C1=O (centres undefined) | > 200 | 110 | 
O=C1CCCCCCCCCCC(=O)N2CCOCCOCCN1Cc1cccc(n1)C2 | > 407 | 316 | 
Cc1ccc(NC(=O)/C(CC(=O)c2sc(Nc3ccc(Cl)c(Cl)c3)nc2C)=N\Nc2ccc([N+](=O)[O-])cc2[N+](=O)[O-])c(C)c1 | > 200 | 25.1 | 
Cc1cc(C(c2cc(C)c(O)c(C(=O)O)c2)c2cc(C)c(O)c(C(=O)O)c2)cc(C(=O)O)c1O | > 269 | > 269 | 
O=c1[nH]n(Cc2ccccc2Cl)c2ccc([N+](=O)[O-])cc12 | > 200 | 69.2 | 
C=CCNC(=S)/N=C/c1c(O)c2ccccc2oc1=O | > 64.6 | 43.7 | 
CC(=O)N1C(=O)C(=O)c2cc(Cl)ccc21 |  |  | inactive
CCCCS(=O)(=O)c1ccc(O)c(C(=O)Nc2cccc(C(F)(F)F)c2)c1 | > 170 | 1.91 | 
CC1(C)O[C@@H](C[C@]2(C#N)C[C@H](CCl)OC(C)(C)O2)C[C@@H](C#N)O1 |  | > 200 | inactive
O=S(=O)(NC1CCCCC1)c1ccc2c(c1)OCCOCCOCCOCCO2 | > 200 | > 200 | 
O=C(O)CCC1(Br)CCCCC(Br)C1=O (centres undefined) | > 724 | 245 | 
N#CCN(Cc1ccccc1)[C@H]1CCC[C@]1(O)/C=C/c1ccc2c(c1)OCO2 | > 200 | 32.4 | 
CN(C)CCCNC(=O)c1nc(NC(=O)c2nc(NC(=O)c3nc(NC(=O)/C=C/C(=O)Nc4cn(C)c(C(=O)Nc5cn(C)c(C(=O)Nc6cn(C)c(C(=O)NCCCN(C)C)n6)n5)n4)cn3C)cn2C)cn1C | > 50.1 | > 50.1 | 
CC(=O)c1sc(/N=C\c2c(O)c3ccccc3oc2=O)nc1C | > 200 | 38.9 | 
NNC(=O)Cn1ccnn1 | > 200 | > 200 | 
CCC(C)C(NC(=O)c1ccccc1SC(=O)CCCC[n+]1ccccc1)C(N)=O (centres undefined) | > 35.5 | 4.07 | 
CCN(CC)c1ccc(N=Nc2ccc(N=Nc3c(S(=O)(=O)O)cc4ccc(N)cc4c3O)c(OCCO)c2)cc1 | > 14.8 | > 14.8 | 
COc1ccc(NC2=CC(C)(C(=O)O)OC2=O)cc1 (centres undefined) | > 200 | > 200 | 

SMILES | EC50 [µM] | IC50 [µM] | outcome
OCC1OCOC2COCOC12 (centres undefined) | > 200 | > 200 | 
CN(CCO)CC(=O)CC(O)(C(F)(F)F)C(F)(F)F | > 200 | 39.8 | 
Cc1cccc2c(N)c3cccc(C(=O)NCC[N+](C)(C)Cc4ccc([N+](=O)[O-])s4)c3nc12 | > 2 | 0.251 | 
COc1cc2c(cc1OC)C13CCN4CC5=CCOC(CC(=O)O)C(C5CC41)C3N2 (centres undefined) | 25.7 | 151 | 
Cc1ccc2c(c1)CN1c3ccc(C)cc3CN2C1c1ccccc1O |  |  | inactive
CC1=NN(C(=O)CC(=O)Nc2ccccc2C)C(=O)C1N=Nc1ccc(S(=O)(=O)c2ccc(N=NC3C(=O)N(C(=O)CC(=O)Nc4ccccc4C)N=C3C)cc2)cc1 (centres undefined) | > 50.1 | > 50.1 | 
CCOC(=O)C(NC(=O)c1cccc(Cl)c1)(Nc1ccc(S(=O)(=O)Nc2cc(C)nc(C)n2)cc1)C(F)(F)F (centres undefined) | > 200 | > 200 | 
Cc1ccc(/C=N/Nc2nncc3ccccc23)s1 | > 200 | > 200 | 
CSC1=Nc2ccccc2-c2nc(-c3ccccc3)cc(-c3ccccc3)c2C1 | > 200 | > 200 | 
CCOC(=O)c1cnn2c1ncc1c(=O)n(NC(N)=O)ccc12 | > 200 | > 200 | 
COC(=O)CCCC1(CCCC(=O)OC)CCCCCCCCC(CCCC(=O)OC)(CCCC(=O)OC)C(=O)C1=O | > 200 | 35.5 | 
O=S(=O)(c1ccc(Cl)cc1)S(=O)(=O)c1ccc(Cl)cc1 | 10.7 | 26.9 | 
S=c1nnn(C2CCCN2)[nH]1 (centres undefined) | > 200 | > 200 | 
c1ccc(CCN(Cc2nc3ccccc3[nH]2)Cc2nc3ccccc3[nH]2)cc1 | > 200 | 10.5 | 
Cc1cc(S(=O)(=O)NC2=NC(c3ccccc3)c3ccccc3N2)c(S)cc1Cl (centres undefined) | > 200 | > 200 | 
[Zn+2].c1ccc(-c2c3nc(c(-c4ccccc4)c4[n-]c(c(-c5ccccc5)c5nc(c(-c6ccccc6)c6[n-]c2c2ccccc62)-c2ccccc2-5)c2ccccc42)-c2ccccc2-3)cc1 | > 50.1 | > 50.1 | 
CCC(C)NC(=O)/C(=C\c1ccccc1O)NC(=O)c1ccccc1 (centres undefined) | > 200 | > 200 | 
C[N+](C)(C)CC1CCCC/C1=N\OC(=O)c1ccccc1 (centres undefined) | > 603 | 575 | 
O=C(NCCCCCCNC(=O)NCc1ccco1)NCc1ccco1 | > 14.5 | > 14.5 | 
Cc1ccc(S(=O)(=O)SCC(=O)c2ccc([N+](=O)[O-])cc2)cc1 |  | 102 | inactive
O=C(O)CC[C@]1(C(=O)O)NC(C(=O)O)Cc2[nH]cnc21 (some centres undefined) | > 891 | > 891 | 

From PubChem BioAssay AID179 (DTP/NCI, 2004)
